Laboratory results published in patent US20070128217A1 (priority 2003, published 2007).

Tests used:
[1] = system: antibodies in sera from SARS patients (sera 1a, 1b, 2, 6, 37, 62, London, SARS-yellow, SARS-green); type: binding, human; set-up: Binding of serum 6 to linear peptides of protein X1 of SARS-CoV Urbani / Binding of serum 37 to linear peptides of protein X1 of SARS-CoV Urbani / Binding of serum 6 to looped/cyclic peptide (PEPSCAN-ELISA) / Binding of serum 37 to looped/cyclic peptide (PEPSCAN-ELISA) / Binding of serum 37 to looped/cyclic peptides of protein X1 of SARS-CoV Urbani / Binding of serum 6 to linear peptides of protein X2 / Binding of serum 37 to linear peptides of protein X2 / Binding of serum 37 to looped/cyclic peptides of protein X2 of SARS-CoV Urbani / Binding of serum 6 to linear peptides of protein M of SARS-CoV Urbani / Binding of serum 37 to linear peptides of protein M of SARS-CoV Urbani / Binding of serum 6 to looped/cyclic peptides of protein M of SARS-CoV Urbani / Binding of serum 37 to looped/cyclic peptides of protein M of SARS-CoV Urbani / Binding of serum 6 to linear peptides of protein X3 of SARS-CoV Urbani / Binding of serum 37 to linear peptides of protein X3 of SARS-CoV Urbani / Binding of serum 37 to looped/cyclic peptides of protein X3 of SARS-CoV Urbani / Binding of serum 6 to linear peptides of protein X4 of SARS-CoV Urbani / Binding of serum 37 to linear peptides of protein X4 of SARS-CoV Urbani / Binding of serum 37 to looped/cyclic peptides of protein X4 of SARS-CoV Urbani / Binding of serum 6 to linear peptides of protein X5 of SARS-CoV Urbani / Binding of serum 37 to linear peptides of protein X5 of SARS-CoV Urbani / Binding of serum 37 to looped/cyclic peptides of protein X5 of SARS-CoV Urbani / Binding of serum 6 to linear peptides of protein N of SARS-CoV Urbani / Binding of serum 37 to linear peptides of protein N of SARS-CoV Urbani / Binding of serum 6 to linear peptide (PEPSCAN-ELISA) / Binding of serum 1a to looped/cyclic peptides of protein N of SARS-CoV Urbani / Binding of serum 1b to looped/cyclic peptides of protein N of SARS-CoV Urbani / Binding of serum 2 to looped/cyclic peptides of protein N of SARS-CoV Urbani / Binding of serum 6 to looped/cyclic peptides of protein N of SARS-CoV Urbani / Binding of serum 37 to looped/cyclic peptides of protein N of SARS-CoV Urbani / Binding of serum 62 to looped/cyclic peptides of protein N of SARS-CoV Urbani / Binding of serum London to looped/cyclic peptides of protein N of SARS-CoV Urbani / Binding of serum SARS-green to looped/cyclic peptides of protein N of SARS-CoV Urbani: unit not given here
[2] = system: rabbit serum obtained by immunizing a rabbit with the SARS-CoV strain Frankfurt 1; type: binding; set-up: Binding of a rabbit serum to linear peptides / Binding of a rabbit serum to looped peptides / Rabbit serum linear peptides / Rabbit serum looped peptides / Binding of a rabbit serum to linear peptides of protein N of SARS-CoV Urbani (Rabbit serum linear peptides) / Binding of a rabbit serum to looped/cyclic peptides of protein N of SARS-CoV Urbani (Rabbit serum looped peptides): unit not given here
[3] = system: control sera (pooled serum of ten healthy LUMC hospital workers; commercial negative donor pooled serum from the Dutch bloodbank); type: binding, human; set-up: Binding of Control serum LUMC to linear peptides / Binding of Control serum Blood-bank to linear peptides / Binding of Control serum LUMC to looped peptides / Binding of Control Serum Blood-Bank to Looped peptides / Binding of Control serum LUMC to linear peptides of the protein M of SARS-CoV Urbani / Binding of Control serum Blood-bank to linear peptides of the protein M of SARS-CoV Urbani / Binding of Control serum LUMC to looped peptides of the protein M of SARS-CoV Urbani / Binding of Control Serum Blood-Bank to Looped peptides of the protein M of SARS-CoV Urbani: unit not given here

FGWLVIGVAFLAVFQ
Binding of serum 1a to linear peptides of protein X1 of SARS-CoV Urbani [1]: 0.7
Binding of serum 1a to looped/cyclic peptide (PEPSCAN-ELISA) [1]: 0.7
Binding of serum 1b to linear peptides of protein X1 of SARS-CoV Urbani [1]: 0.5
Binding of serum 1b to looped/cyclic peptide (PEPSCAN-ELISA) [1]: 0.8
Binding of serum 2 to linear peptides of protein X1 of SARS-CoV Urbani [1]: 0.5
Binding of serum 2 to looped/cyclic peptide (PEPSCAN-ELISA) [1]: 0.7
Binding of serum 6 to linear peptides of protein X1 of SARS-CoV Urbani [1]: 0.4
Binding of serum 6 to looped/cyclic peptide (PEPSCAN-ELISA) [1]: 0.5
Binding of serum 37 to linear peptides of protein X1 of SARS-CoV Urbani [1]: 0.6
Binding of serum 37 to looped/cyclic peptide (PEPSCAN-ELISA) [1]: 0.6
Binding of serum 62 to linear peptides of protein X1 of SARS-CoV Urbani [1]: 0.6
Binding of serum 62 to looped/cyclic peptide (PEPSCAN-ELISA) [1]: 0.7
Binding of serum London to linear peptides of protein X1 of SARS-CoV Urbani [1]: 0.3
Binding of serum London to looped/cyclic peptide (PEPSCAN-ELISA) [1]: 0.3
Binding of serum SARS-green to linear peptides of protein X1 of SARS-CoV Urbani [1]: 0.1
Binding of serum SARS-green to looped/cyclic peptide (PEPSCAN-ELISA) [1]: 0.4
Binding of serum SARS-yellow to linear peptides of protein X1 of SARS-CoV Urbani [1]: 0.5
Binding of serum SARS-yellow to looped/cyclic peptide (PEPSCAN-ELISA) [1]: 0.6
Binding of a rabbit serum to linear peptides [2]: 1.2
Binding of a rabbit serum to looped peptides [2]: 0.5
Binding of Control Serum Blood-Bank to Looped peptides [3]: 0.6
Binding of Control serum Blood-bank to linear peptides [3]: 0.5
Binding of Control serum LUMC to linear peptides [3]: 0.5
Binding of Control serum LUMC to looped peptides [3]: 0.7

FHLVDFQVTIAEILI
Binding of serum 1a to linear peptides of protein X3 of SARS-CoV Urbani [1]: 0.8
Binding of serum 1a to looped/cyclic peptides of protein X3 of SARS-CoV Urbani [1]: 0.8
Binding of serum 1b to linear peptides of protein X3 of SARS-CoV Urbani [1]: 0.6
Binding of serum 1b to looped/cyclic peptides of protein X3 of SARS-CoV Urbani [1]: 0.4
Binding of serum 2 to linear peptides of protein X3 of SARS-CoV Urbani [1]: 0.7
Binding of serum 2 to looped/cyclic peptides of protein X3 of SARS-CoV Urbani [1]: 0.8
Binding of serum 6 to linear peptides of protein X3 of SARS-CoV Urbani [1]: 0.4
Binding of serum 6 to looped/cyclic peptides of protein X3 of SARS-CoV Urbani [1]: 0.5
Binding of serum 37 to linear peptides of protein X3 of SARS-CoV Urbani [1]: 0.7
Binding of serum 37 to looped/cyclic peptides of protein X3 of SARS-CoV Urbani [1]: 0.7
Binding of serum 62 to linear peptides of protein X3 of SARS-CoV Urbani [1]: 0.6
Binding of serum 62 to looped/cyclic peptides of protein X3 of SARS-CoV Urbani [1]: 0.7
Binding of serum London to linear peptides of protein X3 of SARS-CoV Urbani [1]: 0.6
Binding of serum London to looped/cyclic peptides of protein X3 of SARS-CoV Urbani [1]: 0.2
Binding of serum SARS-green to linear peptides of protein X3 of SARS-CoV Urbani [1]: 0.5
Binding of serum SARS-green to looped/cyclic peptides of protein X3 of SARS-CoV Urbani [1]: 0.3
Binding of serum SARS-yellow to linear peptides of protein X3 of SARS-CoV Urbani [1]: 0.9
Binding of serum SARS-yellow to looped/cyclic peptides of protein X3 of SARS-CoV Urbani [1]: 0.8
Rabbit serum linear peptides [2]: 0.3
Rabbit serum looped peptides [2]: 0.5
Binding of Control Serum Blood-Bank to Looped peptides of the protein X3 of SARS-CoV Urbani [3]: 0.7
Binding of Control serum Blood-bank to linear peptides of the protein X3 of SARS-CoV Urbani [3]: 0.8
Binding of Control serum LUMC to linear peptides of the protein X3 of SARS-CoV Urbani [3]: 0.6
Binding of Control serum LUMC to looped peptides of the protein X3 of SARS-CoV Urbani [3]: 0.8

FHRWHTMVQTCTPNV
Binding of serum 1a to linear peptides of protein X5 of SARS-CoV Urbani [1]: 0.8
Binding of serum 1a to looped/cyclic peptides of protein X5 of SARS-CoV Urbani [1]: 0.7
Binding of serum 1b to linear peptides of protein X5 of SARS-CoV Urbani [1]: 0.7
Binding of serum 1b to looped/cyclic peptides of protein X5 of SARS-CoV Urbani [1]: 0.6
Binding of serum 2 to linear peptides of protein X5 of SARS-CoV Urbani [1]: 0.9
Binding of serum 2 to looped/cyclic peptides of protein X5 of SARS-CoV Urbani [1]: 0.6
Binding of serum 6 to linear peptides of protein X5 of SARS-CoV Urbani [1]: 0.5
Binding of serum 6 to looped/cyclic peptides of protein X5 of SARS-CoV Urbani [1]: 0.3
Binding of serum 37 to linear peptides of protein X5 of SARS-CoV Urbani [1]: 0.7
Binding of serum 37 to looped/cyclic peptides of protein X5 of SARS-CoV Urbani [1]: 0.5
Binding of serum 62 to linear peptides of protein X5 of SARS-CoV Urbani [1]: 0.7
Binding of serum 62 to looped/cyclic peptides of protein X5 of SARS-CoV Urbani [1]: 0.4
Binding of serum London to linear peptides of protein X5 of SARS-CoV Urbani [1]: 0.7
Binding of serum London to looped/cyclic peptides of protein X5 of SARS-CoV Urbani [1]: 0.2
Binding of serum SARS-green to linear peptides of protein X5 of SARS-CoV Urbani [1]: 0.5
Binding of serum SARS-green to looped/cyclic peptides of protein X5 of SARS-CoV Urbani [1]: 0.5
Binding of serum SARS-yellow to linear peptides of protein X5 of SARS-CoV Urbani [1]: 0.4
Binding of serum SARS-yellow to looped/cyclic peptides of protein X5 of SARS-CoV Urbani [1]: 0.4
Rabbit serum linear peptides [2]: 0.8
Rabbit serum looped peptides [2]: 0.4
Binding of Control Serum Blood-Bank to Looped peptides [3]: 0.4
Binding of Control serum Blood-bank to linear peptides [3]: 0.7
Binding of Control serum LUMC to linear peptides [3]: 0.5
Binding of Control serum LUMC to looped peptides [3]: 0.5

FIRQEEVQQELYSPL
Binding of serum 1a to linear peptides of protein X4 of SARS-CoV Urbani [1]: 0.8
Binding of serum 1b to linear peptides of protein X4 of SARS-CoV Urbani [1]: 0.6
Binding of serum 2 to linear peptides of protein X4 of SARS-CoV Urbani [1]: 0.5
Binding of serum 6 to linear peptides of protein X4 of SARS-CoV Urbani [1]: 0.5
Binding of serum 37 to linear peptides of protein X4 of SARS-CoV Urbani [1]: 0.8
Binding of serum 62 to linear peptides of protein X4 of SARS-CoV Urbani [1]: 0.7
Binding of serum London to linear peptides of protein X4 of SARS-CoV Urbani [1]: 0.7
Binding of serum SARS-green to linear peptides of protein X4 of SARS-CoV Urbani [1]: 0.5
Binding of serum SARS-yellow to linear peptides of protein X4 of SARS-CoV Urbani [1]: 0.7
Recognition of the peptide by sera of SARS-CoV infected individuals, and form (linear, looped/cyclic) in which it is recognized [1]: recognized in looped/cyclic form
Rabbit serum linear peptides [2]: 0.5
Rabbit serum looped peptides [2]: 0.5
Binding of Control Serum Blood-Bank to Looped peptides [3]: 0.9
Binding of Control serum Blood-bank to linear peptides [3]: 0.7
Binding of Control serum LUMC to linear peptides [3]: 0.7
Binding of Control serum LUMC to looped peptides [3]: 0.9

FLAVFQSATKIIALN
Binding of serum 1a to linear peptides of protein X1 of SARS-CoV Urbani [1]: 0.6
Binding of serum 1a to looped/cyclic peptide (PEPSCAN-ELISA) [1]: 0.6
Binding of serum 1b to linear peptides of protein X1 of SARS-CoV Urbani [1]: 0.4
Binding of serum 1b to looped/cyclic peptide (PEPSCAN-ELISA) [1]: 0.4
Binding of serum 2 to linear peptides of protein X1 of SARS-CoV Urbani [1]: 0.5
Binding of serum 2 to looped/cyclic peptide (PEPSCAN-ELISA) [1]: 0.5
Binding of serum 6 to linear peptides of protein X1 of SARS-CoV Urbani [1]: 0.4
Binding of serum 6 to looped/cyclic peptide (PEPSCAN-ELISA) [1]: 1.0
Binding of serum 37 to linear peptides of protein X1 of SARS-CoV Urbani [1]: 0.6
Binding of serum 37 to looped/cyclic peptide (PEPSCAN-ELISA) [1]: 0.5
Binding of serum 62 to linear peptides of protein X1 of SARS-CoV Urbani [1]: 0.6
Binding of serum 62 to looped/cyclic peptide (PEPSCAN-ELISA) [1]: 0.6
Binding of serum London to linear peptides of protein X1 of SARS-CoV Urbani [1]: 0.2
Binding of serum London to looped/cyclic peptide (PEPSCAN-ELISA) [1]: 1.4
Binding of serum SARS-green to linear peptides of protein X1 of SARS-CoV Urbani [1]: 0.3
Binding of serum SARS-green to looped/cyclic peptide (PEPSCAN-ELISA) [1]: 0.3
Binding of serum SARS-yellow to linear peptides of protein X1 of SARS-CoV Urbani [1]: 0.4
Binding of serum SARS-yellow to looped/cyclic peptide (PEPSCAN-ELISA) [1]: 0.4
Binding of a rabbit serum to linear peptides [2]: 0.6
Binding of a rabbit serum to looped peptides [2]: 0.6
Binding of Control Serum Blood-Bank to Looped peptides [3]: 0.6
Binding of Control serum Blood-bank to linear peptides [3]: 0.6
Binding of Control serum LUMC to linear peptides [3]: 0.6
Binding of Control serum LUMC to looped peptides [3]: 0.7
